Data: patent US12441722B2, “Therapeutic agents and methods of treatment” (University of Florida Research Foundation, Incorporated, priority 2020, dated 2025)

test system: MOLT-4; experiment: Cell viability assay (tetrazolium-based MTS) in MOLT4 cells; conditions: Homo sapiens, MOLT-4, MOLT4 acute lymphoblastic leukemia cells, 48 h incubation
Experimental: Cancer cells from acute lymphoblastic leukemia (MOLT4) were incubated with increasing concentrations of compounds of Examples 1-9 for 48 h. Cell viability was measured by tetrazolium-based MTS assay. 5×10^4 to 1×10^5 suspension cells or 3×10^3 to 5×10^3 adherent cells were seeded and treated in 96-well plates for 48 h. The EC50 values of individual agents were calculated with GraphPad Prism.

Row | Structure (SMILES) | EC50
1 | Cc1c(-c2ccc(N3CCc4cccc(C(=O)Nc5nc6ccccc6s5)c4C3)nc2C(=O)NCCCCCCCCNc2cccc3c2C(=O)N(C2CCC(=O)NC2=O)C3=O)cnn1CC12CC3CC(CC(C3)C1)C2 (stereo not shown) [degrader #5, 2-(5-(1-(adamantan-1-ylmethyl)-5-methyl-1H-pyrazol-4-yl)-6-((8-((2-(2,6-dioxopiperidin-3-yl)-1,3-dioxoisoindolin-4-yl)amino)octyl)carbamoyl)pyridin-2-yl)-N-(benzo[d]thiazol-2-yl)-1,2,3,4-tetrahydroisoquinoline-8-carboxamide] | 100 to 1000 nM
2 | Cc1c(-c2ccc(N3CCc4cccc(C(=O)Nc5nc6ccccc6s5)c4C3)nc2C(=O)NS(=O)(=O)CCCn2cc(COCCOCCNc3cccc4c3C(=O)N(C3CCC(=O)NC3=O)C4=O)nn2)cnn1CC12CC3CC(CC(C3)C1)C2 (stereo not shown) [degrader #1, 2-(5-(1-(adamantan-1-ylmethyl)-5-methyl-1H-pyrazol-4-yl)-6-(((3-(4-((2-(2-((2-(2,6-dioxopiperidin-3-yl)-1,3-dioxoisoindolin-4-yl)amino)ethoxy)ethoxy)methyl)-1H-1,2,3-triazol-1-yl)propyl)sulfonyl)carbamoyl)pyridin-2-yl)-N-(benzo[d]thiazol-2-yl)-1,2,3,4-tetrahydroisoquinoline-8-carboxamide] | 10 to 100 nM
3 | Cc1c(-c2ccc(N3CCc4cccc(C(=O)Nc5nc6ccccc6s5)c4C3)nc2C(=O)NCCOCCNc2cccc3c2C(=O)N(C2CCC(=O)NC2=O)C3=O)cnn1CC12CC3CC(CC(C3)C1)C2 (stereo not shown) [degrader #6, 2-(5-(1-(adamantan-1-ylmethyl)-5-methyl-1H-pyrazol-4-yl)-6-((2-(2-((2-(2,6-dioxopiperidin-3-yl)-1,3-dioxoisoindolin-4-yl)amino)ethoxy)ethyl)carbamoyl)pyridin-2-yl)-N-(benzo[d]thiazol-2-yl)-1,2,3,4-tetrahydroisoquinoline-8-carboxamide] | 10 to 100 nM
4 | Cc1ncsc1-c1ccc([C@H](C)NC(=O)[C@@H]2C[C@@H](O)CN2C(=O)[C@@H](NC(=O)CCCCS(=O)(=O)NC(=O)c2nc(N3CCc4cccc(C(=O)Nc5nc6ccccc6s5)c4C3)ccc2-c2cnn(CC34CC5CC(CC(C5)C3)C4)c2C)C(C)(C)C)cc1 [degrader #10, 2-(5-(1-(adamantan-1-ylmethyl)-5-methyl-1H-pyrazol-4-yl)-6-(((5-(((S)-1-((2S,4R)-4-hydroxy-2-(((S)-1-(4-(4-methylthiazol-5-yl)phenyl)ethyl)carbamoyl)pyrrolidin-1-yl)-3,3-dimethyl-1-oxobutan-2-yl)amino)-5-oxopentyl)sulfonyl)carbamoyl)pyridin-2-yl)-N-(benzo[d]thiazol-2-yl)-1,2,3,4-tetrahydroisoquinoline-8-carboxamide] | < 10 nM

Now from value to compound:

Row | EC50 | Structure (SMILES)
5 | < 10 nM | Cc1ncsc1-c1ccc([C@H](C)NC(=O)[C@@H]2C[C@@H](O)CN2C(=O)[C@@H](NC(=O)CCCCCCCCS(=O)(=O)NC(=O)c2nc(N3CCc4cccc(C(=O)Nc5nc6ccccc6s5)c4C3)ccc2-c2cnn(CC34CC5CC(CC(C5)C3)C4)c2C)C(C)(C)C)cc1 [degrader #14, 2-(5-(1-(adamantan-1-ylmethyl)-5-methyl-1H-pyrazol-4-yl)-6-(((9-(((S)-1-((2S,4R)-4-hydroxy-2-(((S)-1-(4-(4-methylthiazol-5-yl)phenyl)ethyl)carbamoyl)pyrrolidin-1-yl)-3,3-dimethyl-1-oxobutan-2-yl)amino)-9-oxononyl)sulfonyl)carbamoyl)pyridin-2-yl)-N-(benzo[d]thiazol-2-yl)-1,2,3,4-tetrahydroisoquinoline-8-carboxamide]
6 | 10 to 100 nM | Cc1ncsc1-c1ccc([C@H](C)NC(=O)[C@@H]2C[C@@H](O)CN2C(=O)[C@@H](NC(=O)CCCCCCCCCCS(=O)(=O)NC(=O)c2nc(N3CCc4cccc(C(=O)Nc5nc6ccccc6s5)c4C3)ccc2-c2cnn(CC34CC5CC(CC(C5)C3)C4)c2C)C(C)(C)C)cc1 [degrader #16, 2-(5-(1-(adamantan-1-ylmethyl)-5-methyl-1H-pyrazol-4-yl)-6-(((11-(((S)-1-((2S,4R)-4-hydroxy-2-(((S)-1-(4-(4-methylthiazol-5-yl)phenyl)ethyl)carbamoyl)pyrrolidin-1-yl)-3,3-dimethyl-1-oxobutan-2-yl)amino)-11-oxoundecyl)sulfonyl)carbamoyl)pyridin-2-yl)-N-(benzo[d]thiazol-2-yl)-1,2,3,4-tetrahydroisoquinoline-8-carboxamide]
7 | 10 to 100 nM | Cc1ncsc1-c1ccc([C@H](CC(=O)NCCCCCNC(=O)c2nc(N3CCc4cccc(C(=O)Nc5nc6ccccc6s5)c4C3)ccc2-c2cnn(CC34CC5CC(CC(C5)C3)C4)c2C)NC(=O)[C@@H]2C[C@@H](O)CN2C(=O)[C@@H](NC(=O)C2(C#N)CC2)C(C)(C)C)cc1 [degrader #23, 2-(5-(1-(adamantan-1-ylmethyl)-5-methyl-1H-pyrazol-4-yl)-6-((5-((S)-3-((2S,4R)-1-((S)-2-(1-cyanocyclopropane-1-carboxamido)-3,3-dimethylbutanoyl)-4-hydroxypyrrolidine-2-carboxamido)-3-(4-(4-methylthiazol-5-yl)phenyl)propanamido)pentyl)carbamoyl)pyridin-2-yl)-N-(benzo[d]thiazol-2-yl)-1,2,3,4-tetrahydroisoquinoline-8-carboxamide]

same assay, conditions: MOLT4 acute lymphoblastic leukemia cells, 48 h incubation

Row | EC50 | Structure (SMILES)
8 | 100 to 1000 nM | Cc1ncsc1-c1ccc([C@H](CC(=O)NCCCCCCNC(=O)c2nc(N3CCc4cccc(C(=O)Nc5nc6ccccc6s5)c4C3)ccc2-c2cnn(CC34CC5CC(CC(C5)C3)C4)c2C)NC(=O)[C@@H]2C[C@@H](O)CN2C(=O)[C@@H](NC(=O)C2(C#N)CC2)C(C)(C)C)cc1 [degrader #24, 2-(5-(1-(adamantan-1-ylmethyl)-5-methyl-1H-pyrazol-4-yl)-6-((6-((S)-3-((2S,4R)-1-((S)-2-(1-cyanocyclopropane-1-carboxamido)-3,3-dimethylbutanoyl)-4-hydroxypyrrolidine-2-carboxamido)-3-(4-(4-methylthiazol-5-yl)phenyl)propanamido)hexyl)carbamoyl)pyridin-2-yl)-N-(benzo[d]thiazol-2l)-1,2,3,4-tetrahydroisoquinoline-8-carboxamide]
9 | 10 to 100 nM | Cc1c(-c2ccc(N3CCc4cccc(C(=O)Nc5nc6ccccc6s5)c4C3)nc2C(=O)O)cnn1CC12CC3CC(C1)CC(C(=O)NCCOCCOCCOCCNc1cccc4c1C(=O)N(C1CCC(=O)NC1=O)C4=O)(C3)C2 (stereo not shown) [degrader #40, 6-(8-(benzo[d]thiazol-2-ylcarbamoyl)-3,4-dihydroisoquinolin-2(1H)-yl)-3-(1-(((1r,3r)-3-((2-(2-(2-(2-((2-(2,6-dioxopiperidin-3-yl)-1,3-dioxoisoindolin-4-yl)amino)ethoxy)ethoxy)ethoxy)ethyl)carbamoyl)adamantan-1-yl)methyl)-5-methyl-1H-pyrazol-4-yl)picolinic acid]
10 | 10 to 100 nM | Cc1c(-c2ccc(N3CCc4cccc(C(=O)Nc5nc6ccccc6s5)c4C3)nc2C(=O)O)cnn1CC12CC3CC(C1)CC(C(=O)NCCCCNc1cccc4c1C(=O)N(C1CCC(=O)NC1=O)C4=O)(C3)C2 (stereo not shown) [degrader #34, 6-(8-(benzo[d]thiazol-2-ylcarbamoyl)-3,4-dihydroisoquinolin-2(1H)-yl)-3-(1-(((1r,3r)-3-((4-((2-(2,6-dioxopiperidin-3-yl)-1,3-dioxoisoindolin-4-yl)amino)butyl)carbamoyl)adamantan-1-yl)methyl)-5-methyl-1H-pyrazol-4-yl)picolinic acid]
